These results are taken from patent US20230012368A1 (Hoffmann-La Roche Inc., priority 2018, published 2023).

Counter-ions that a name gives are not always drawn.

The first assay concerns Acinetobacter baumannii ATCC 17978. Kind of assay: Antimicrobial susceptibility testing: 90% growth inhibitory concentration (IC90) determination. Type of assay: cell-based. The note with it: 90% growth inhibitory concentration; Acinetobacter baumannii ATCC17978; Iso-Sensitest broth, OD 600 nm over 16h; read-out: ATCC17978 IC90. The method, boiled down: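 Growth of the Acinetobacter baumannii strain was followed by optical density at 600 nm every 20 minutes for 16h at 35±2° C. Inoculum was ~5×10^(5) CFU/ml in Iso-Sensitest medium, with twofold compound dilutions (e.g. 50 to 0.097 μM final). The 90% inhibitory concentration was derived in log-phase growth.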
Turning to `CCc1cc(Nc2nccn3c(-c4ccc(OC)c(F)c4F)cnc23)ccc1C(=O)NCC(=O)N(C)CCNC` [Example 158, 4-((3-(2,3-difluoro-4-methoxyphenyl)imidazo[1,2-a]pyrazin-8-yl)amino)-2-ethyl-N-(2-(methyl(2-(methylamino)ethyl)amino)-2-oxoethyl)benzamide; formic acid], the concentration for an effect of 90% (IC90) (as a rule, the concentration at which the effect reaches the 90% level) stood at 160 nM.
For `COc1ccc(-c2cnc3c(Nc4ccc(C(=O)N(C)CCCC(=O)N5CCNCC5)c(C)c4)nccn23)cc1F` [Example 4, 4-[[3-(3-fluoro-4-methoxy-phenyl)imidazo[1,2-a]pyrazin-8-yl]amino]-N,2-dimethyl-N-(4-oxo-4-piperazin-1-yl-butyl)benzamide], the concentration for an effect of 90% (IC90) amounted to 290 nM.
Turning to `COc1ccc(-c2cnc3c(Nc4ccc(C(=O)N(C)CC5CCOCC5)c(C)c4)nccn23)cc1F` [Example 35, 4-[[3-(3-fluoro-4-methoxy-phenyl)imidazo[1,2-a]pyrazin-8-yl]amino]-N,2-dimethyl-N-(tetrahydropyran-4-ylmethyl)benzamide; 2,2,2-trifluoroacetic acid], the 90% effect concentration (IC90) came to 1200 nM.

The assay is the same for the next values; noted with them: Acinetobacter baumannii, ATCC17978, 16 h, 90% growth inhibitory concentration; Acinetobacter baumannii ATCC17978; Iso-Sensitest broth, OD 600 nm over 16h; read-out: ATCC17978 IC90.
On to `CCc1cc(Nc2nccn3c(-c4ccc(Oc5ccccn5)c(F)c4F)cnc23)ccc1C(=O)NCCC(=O)N1CCN[C@H](CO)C1` [Example 475, 4-[[3-[2,3-difluoro-4-(2-pyridyloxy)phenyl]imidazo [1,2-a]pyrazin-8-yl]amino]-2-ethyl-N-[3-[(3S)-3-(hydroxymethyl)piperazin-1-yl]-3-oxo-propyl]benzamide], for which the IC90 was 410 nM.
On to `CCc1cc(Nc2nccn3c(-c4ccc(OC(F)F)c(F)c4F)cnc23)ccc1C(=O)NC(C)CCN` (stereo not shown) [Example 402, N-(4-aminobutan-2-yl)-4-((3-(4-(difluoromethoxy)-2,3-difluorophenyl)imidazo[1,2-a]pyrazin-8-yl)amino)-2-ethylbenzamide hydrochloride], for which the 90% effect concentration (IC90) is 570 nM.
Same read-out and setting: under `COc1ccc(-c2cnc3c(Nc4ccc(C(=O)NCCNC(=O)CC[C@H]5C(=O)N5C)c(C)c4)nccn23)c(F)c1F` [Example 338, 4-[[3-(2,3-difluoro-4-methoxyphenyl)imidazo[1,2-a]pyrazin-8-yl]amino]-2-methyl-N-[2-[3-[(2S)-1-methyl-3-oxoaziridin-2-yl]propanoylamino]ethyl]benz-amide] stands 540 nM.
Turning to `CCc1cc(Nc2nccn3c(-c4ccc(OC)c(F)c4F)cnc23)ccc1C(=O)NCCCCCc1nnc2ccccn12` [Example 533, N-(5-([1,2,4]triazolo[4,3-a]pyridin-3-yl)pentyl)-4-((3-(2,3-difluoro-4-methoxyphenyl)imidazo[1,2-a]pyrazin-8-yl)amino)-2-ethylbenzamide], the concentration for an effect of 90% (IC90) is 100 nM.
`COc1ccc(-c2cnc3c(Nc4ccc(C(=O)NCC5CCN(C)CC5)c(C)c4)nccn23)cc1` [Example 52, 4-[[3-(4-methoxyphenyl)imidazo [1,2-a]pyrazin-8-yl]amino]-2-methyl-N-[(1-methylpiperidin-4-yl)methyl]benzamide]: the IC90 was found to be 750 nM.
As for `CCc1cc(Nc2nccn3c(-c4ccc(Oc5ccccn5)c(F)c4F)cnc23)ccc1C(=O)NCCNC(=O)[C@@H](N)CCCNC(=N)N` [Example 417, N-[2-[[(2S)-2-amino-5-guanidino-pentanoyl]amino]ethyl]-4-[[3-[2,3-difluoro-4-(2-pyridyloxy)phenyl]imidazo [1,2-a]pyrazin-8-yl]amino]-2-ethyl-benzamide; formic acid], the IC90 came to 850 nM.
Take `CCc1cc(Nc2nccn3c(-c4ccc(OC)c(F)c4F)cnc23)ccc1C(=O)NCCNC(=O)[C@@H](N)CN` [Example 400, N-[2-[[(2S)-2,3-diaminopropanoyl]amino]eth-yl]-4-[[3-(2,3-difluoro-4-methoxy-phenyl)imidazo[1,2-a]pyrazin-8-yl]amino]-2-ethyl-benzamide; formic acid]: the IC90 turned out to be 320 nM.
With `CCc1cc(Nc2nccn3c(-c4ccc(OCC#N)c(F)c4F)cnc23)ccc1C(=O)NCCNC(=O)[C@@H](N)CCCNC(=N)N` [Example 124, N-[2-[[(2S)-2-amino-5-guanidino-pentanoyl]amino]ethyl]-4-[[3-[4-(cyanomethoxy)-2,3-difluoro-phenyl]imidazo[1,2-a]pyrazin-8-yl]amino]-2-ethyl-benzamide formate], the concentration for an effect of 90% (IC90) was found to be 90 nM.
The same measure, in the same setting: under `COC(=O)[C@H](CCCCNC(=O)c1ccc(Nc2nccn3c(-c4ccc(OC(F)F)cc4)cnc23)cc1C)NC(=O)OC(C)(C)C` [Example 245, methyl (2S)-6-[[4-[[3-[4-(difluoromethoxy)phenyl]im-idazo[1,2-a]pyrazin-8-yl]amino]-2-methylbenzoyl]amino]-2-[(2-methylpropan-2-yl)oxycarbonylamino]hexa-noate] stands 2200 nM; under `COc1ccc(-c2cnc3c(Nc4ccc(C(=O)NCCCS(=O)(=O)N5CCNCC5)c(C)c4)nccn23)c(F)c1F` [Example 68, 4-((3-(2,3-difluoro-4-methoxyphenyl)imidazo [1,2-a]pyrazin-8-yl)amino)-2-methyl-N-(3-(piperazin-1-ylsulfonyl)propyl) benzamide], 170 nM.
Same read-out and setting: under `C#CCOc1ccc(-c2cnc3c(Nc4ccc(C(=O)NCCCN)c(CC)c4)nccn23)c(F)c1F` [Example 394, N-(3-aminopropyl)-4-[[3-(2,3-difluoro-4-prop-2-ynoxy-phenyl)imidazo[1,2-a]pyrazin-8-yl]amino]-2-ethyl-benzamide; formic acid] stands 310 nM.
The same measure, in the same setting: under `Cc1cc(Nc2nccn3c(-c4ccc(Cl)c(F)c4F)cnc23)ccc1C(=O)NCCN` [Example 249, N-(2-aminoethyl)-4-[[3-(4-chloro-2,3-difluorophenyl)imidazo[1,2-a]pyrazin-8-yl]amino]-2-methylbenzamide;hydrochlo-ride] stands 2500 nM; under `CCc1cc(Nc2nccn3c(-c4ccc(Oc5ccncn5)c(F)c4F)cnc23)ccc1C(=O)NCCNC(=O)[C@@H](N)CCNC(=N)N` [Example 440, N-[2-[[(2S)-2-amino-4-guanidino-butanoyl]amino]ethyl]-4-[[3-(2,3-difluoro-4-pyrimidin-4-yloxy-phenyl)imidazo[1,2-a]pyrazin-8-yl]amino]-2-ethyl-benzamide; formic acid], 520 nM.
As to `CCc1cc(Nc2nccn3c(-c4ccc(OC(F)F)c(F)c4F)cnc23)ccc1C(=O)NCCCO[C@@H]1O[C@H](CO)[C@@H](O)[C@H](O)[C@H]1O` [Example 442, 4-((3-(4-(difluoromethoxy)-2,3-difluorophenyl)imidazo[1,2-a]pyrazin-8-yl)amino)-2-ethyl-N-(3-(((2R,3R,4S,5S,6R)-3,4,5-trihydroxy-6-(hydroxymethyl)tetrahydro-2H-pyran-2-l)oxy)propyl)benzamide], the concentration for an effect of 90% (IC90) was determined as 410 nM.
Still for that read-out and setting: under `CCc1cc(Nc2nccn3c(-c4ccc(Oc5nccc(C)n5)c(F)c4F)cnc23)ccc1C(=O)NCCNC(=O)[C@@H](N)CCNC(=N)N` [Example 445, (S)-N-(2-(2-amino-4-guanidinobutanamido)ethyl)-4-((3-(2,3-difluoro-4-((4-methylpyrimidin-2-yl)oxy)phenyl)imidazo[1,2-a]pyrazin-8-yl)amino)-2-ethylbenzamide formiate 1:2] stands 380 nM; under `COc1ccc(-c2cnc3c(Nc4ccc(C(=O)NCC5OCC(N)CO5)c(C)c4)nccn23)cc1` (stereo not shown) [Example 206, N-[(5-amino-1,3-dioxan-2-yl)methyl]-4-[[3-(4-methoxyphenyl)imidazo[1,2-a]pyrazin-8-yl]amino]-2-methylbenzamide], 540 nM.
Same read-out and setting: under `CN(CCCSc1nc(=O)c(=O)[nH]n1C)C(=O)c1ccc(Nc2nccn3c(-c4ccc(OCC#N)c(F)c4F)cnc23)cc1Cl` [Example 395, 2-chloro-4-((3-(4-(cyanomethoxy)-2,3-difluorophenyl)imidazo[1,2-a]pyrazin-8-yl)amino)-N-methyl-N-(3-((2-methyl-5,6-dioxo-1,2,5,6-tetrahydro-1,2,4-triazin-3-yl)thio)propyl)benzamide] stands 740 nM; under `COc1ccc(-c2cnc3c(Nc4ccc(C(=O)N[C@@H](C)CN)c(Cl)c4)nccn23)c(F)c1F` [Example 505, #N!-[(2#S!)-1-aminopropan-2-yl]-2-chloro-4-[[3-(2,3-difluoro-4-methoxyphenyl)imidazo[1,2-a]pyrazin-8-yl]amino]benzamide;dihydro-chloride], 270 nM; under `COc1ccc(-c2cnc3c(Nc4ccc(C(=O)NCCCN(C)C)cc4)nccn23)cc1Cl` [Example 263, 4-[[3-(3-chloro-4-methoxyphenyl)imidazo[1,2-a]pyrazin-8-yl]amino]-N-[3-(dimethylamino)propyl]benz-amide], 5000 nM.
Still for that read-out and setting: to `COc1ccc(-c2cnc3c(Nc4ccc(C(=O)N(C)C)cc4)nccn23)c(F)c1F` [Example 107, 4-[[3-(2,3-difluoro-4-methoxy-phenyl)imidazo[1,2-a]pyrazin-4-yl]amino]-N,N-dimethyl-benzamide] belongs 120 nM.
Consider `COc1ccc(-c2cnc3c(Nc4ccc(C(=O)NCC5CNCCO5)c(C)c4)nccn23)cc1F` (stereo not shown) [Example 232, 4-[[3-(3-fluoro-4-methoxyphenyl)imidazo[1,2-a]pyrazin-8-yl]amino]-2-methyl-N-(morpholin-2-ylmethyl)benzamide; hydrochlo-ride], for which the IC90 was 1300 nM.
In the case of `Cc1cc(Nc2nccn3c(-c4ccc(OC(F)F)cc4)cnc23)ccc1C(=O)N(C)CCCSc1nnnn1CCN(C)C` [Example 177, 4-[[3-[4-(difluoromethoxy)phenyl]im-idazo[1,2-a]pyrazin-8-yl]amino]-N-[3-[1-[2-(dimethylamino)ethyl]tetrazol-5-yl]sulfanylpropyl]-N,2-dimethylbenzamide;2,2,2-trifluoroacetic acid], the 90% effect concentration (IC90) is 900 nM.
